# ChEMBL document CHEMBL1148002, “Synthesis and evaluation of 2'-substituted cyclobutyl nucleosides and nucleotides as potential anti-HIV agents” (Bioorg Med Chem Lett, 2007)
# pIC50: −log10 of the molar value.
# Tests used:
# [1] = biological target: Human immunodeficiency virus type 1 reverse transcriptase (Human immunodeficiency virus 1, UniProt Q72547, M184I); test: Inhibition of HIV reverse transcriptase M184I mutant in cell free assay
# [2] = Inhibition of wild type HIV reverse transcriptase in cell free assay; conditions: Human immunodeficiency virus
# [3] = Inhibition of recombinant wild type HIV reverse transcriptase; set-up: species or system Human immunodeficiency virus
# [4] = Inhibition of HIV reverse transcriptase M184V mutant in cell free assay; conditions: Human immunodeficiency virus
Structure (SMILES),pIC50 [1],pIC50 [2],pIC50 [3],pIC50 [4]
Nc1nc(=O)n([C@H]2C[C@@H](COP(=O)(O)OP(=O)(O)OP(=O)(O)O)C2)cc1F,5.21,5.16,5.33,
Nc1ccn([C@@H]2CS[C@H](COP(=O)(O)OP(=O)(O)OP(=O)(O)O)O2)c(=O)n1 [LAMIVUDINE TRIPHOSPHATE],< 5.00,5.19,5.52,< 5.00
